The subject of test [1] is Hepatocyte. The settings on record: Rattus norvegicus, 10 to 50 uM.
Test [2] relates to Hepatocyte. In words: Inhibition of P-glycoprotein in rat primary hepatocytes assessed as increase in intracellular rhodamine 123 accumulation at 100 uM after 3 hrs relative to control. It counts as cell-based.
For test [3], the system named is Hepatocyte. Put plainly: Inhibition of P-glycoprotein in rat primary hepatocytes assessed as increase in intracellular rhodamine 123 accumulation at 100 uM after 3 hrs. It counts as cell-based.
In test [4] the test system is Hepatocyte. Put plainly: Inhibition of P-glycoprotein in rat primary hepatocytes assessed as increase in intracellular rhodamine 123 accumulation after 3 hrs. It counts as cell-based.

Active and inactive are the calls of the source. The rule behind the calls is not given here.

Turning to `COc1ccc(CCN(C)CCCC(C#N)(c2ccc(OC)c(OC)c2)C(C)C)cc1OC` (stereo not given), the inhibition entry with Hepatocyte [1] is “Active”.
Regarding `COc1ccc(-n2nnc(CCCCN3c4ccccc4Sc4ccccc43)n2)cc1`, the inhibition in the test on Hepatocyte [2] came to 20%.
Consider `COc1ccc(-n2nnc(/C=C\C=C\N3c4ccccc4Sc4ccccc43)n2)cc1`, for which the inhibition entry in the test with Hepatocyte [3] was “inactive”.
With `COc1ccc(-n2nnc(CCCN3c4ccccc4Sc4ccccc43)n2)cc1`, the inhibition result in the test on Hepatocyte [3] is “inactive”.
In the case of `COc1ccc(-n2nnc(CCC(O)CN3c4ccccc4Sc4ccccc43)n2)cc1` (stereo not given), the inhibition result in the test on Hepatocyte [4] is “Dose-dependent effect”.
